Measured values: US10597388B2, “Pyridazinone herbicides” (FMC CORPORATION, priority 2014, dated 2020)

Assays:
Assay in all cases: Test C greenhouse herbicide test, pre- and postemergence
Type in all cases: in vivo
[1] = tested on: foxtail, giant (giant foxtail, Setaria faberii)
Outline: (§1)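 Greenhouse pots; pre-em on seeded loam:sand blend, post-em on 2–18 cm plants (1–4 leaf) in sphagnum peat/vermiculite medium. Formulation: non-phytotoxic solvent + surfactant. Read-out: visual % control (0–100) vs controls at 13–15 d.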

[2] = tested on: blackgrass (Alopecurus myosuroides)
Outline: as §1

[3] = tested on: barnyardgrass (Echinochloa crus-galli)
Outline: as §1

[4] = tested on: velvetleaf (Abutilon theophrasti)
Outline: as §1

[5] = tested on: wheat (winter wheat, Triticum aestivum)
Outline: as §1

[6] = tested on: nutsedge, yellow (yellow nutsedge, Cyperus esculentus)
Outline: as §1

soybean (Glycine max) = tested on: soybean (Glycine max)
Outline: as §1

[7] = tested on: pigweed (Amaranthus retroflexus)
Outline: as §1

corn (Zea mays) = tested on: corn (Zea mays)
Outline: as §1

[8] = tested on: waterhemp (common waterhemp, Amaranthus rudis)
Outline: as §1

[9] = tested on: lambsquarters (Chenopodium album)
Outline: as §1

[10] = tested on: ryegrass, Italian (Italian ryegrass, Lolium multiflorum)
Outline: as §1

[11] = tested on: morningglory (Ipomoea coccinea)
Outline: as §1

[12] = tested on: galium (catchweed bedstraw, Galium aparine)
Outline: as §1

[13] = tested on: crabgrass, large (large crabgrass, Digitaria sanguinalis)
Outline: as §1

[14] = Postemergence, 125 g ai/ha, scale 0 to 100, 0 is no effect, 100 is complete control
[15] = Postemergence, 250 g ai/ha, scale 0 to 100, 0 no effect, 100 complete control, 13 to 15 d
[16] = Preemergence, 31 g ai/ha, scale 0 to 100, 0 is no effect, 100 is complete control
[17] = Preemergence, 62 g ai/ha, scale 0 to 100, 0 is no effect, 100 is complete control
[18] = Preemergence, 125 g ai/ha, scale 0 to 100, 0 is no effect, 100 is complete control
[19] = Preemergence, 250 g ai/ha, scale 0 to 100, 0 no effect, 100 complete control
[20] = postemergence, 62 g ai/ha, scale 0 to 100, 0 no effect, 100 complete control
[21] = Postemergence, 31 g ai/ha, 0 to 100 scale (0 no effect, 100 complete control)

CC(=O)Oc1c(C)nn(C)c(=O)c1-c1c(C)cc(C)c2ccccc12 [Compound 99]
Plant response rating, Foxtail, Giant [1, 14]: 30 | Plant response rating, Foxtail, Giant [1, 15]: 50 | Plant response rating, Foxtail, Giant [1, 16]: 40 | Plant response rating, Foxtail, Giant [1, 17]: 35 | Plant response rating, Foxtail, Giant [1, 18]: 65 | Foxtail, Giant plant response rating [1, 19]: 90 | Foxtail, Giant plant response rating [1, 20]: 15 | Blackgrass plant response rating [2, 21]: 20 | Plant response rating, Blackgrass [2, 14]: 50 | Plant response rating, Blackgrass [2, 15]: 65 | Plant response rating, Blackgrass [2, 16]: 50 | Plant response rating, Blackgrass [2, 17]: 70 | Plant response rating, Blackgrass [2, 18]: 90 | Blackgrass plant response rating [2, 19]: 90 | Blackgrass plant response rating [2, 20]: 30 | Barnyardgrass plant response rating [3, 21]: 25 | Plant response rating, Barnyardgrass [3, 14]: 35 | Plant response rating, Barnyardgrass [3, 15]: 35 | Plant response rating, Barnyardgrass [3, 16]: 5 | Plant response rating, Barnyardgrass [3, 17]: 15 | Plant response rating, Barnyardgrass [3, 18]: 55 | Barnyardgrass plant response rating [3, 19]: 85 | Barnyardgrass plant response rating [3, 20]: 25 | Plant response rating, Velvetleaf [4, 14]: 98 | Plant response rating, Velvetleaf [4, 15]: 100 | Plant response rating, Velvetleaf [4, 16]: 60 | Plant response rating, Velvetleaf [4, 17]: 75 | Plant response rating, Velvetleaf [4, 18]: 90 | Velvetleaf plant response rating [4, 19]: 95 | Velvetleaf plant response rating [4, 20]: 85 | Plant response rating, Wheat [5, 14]: 10 | Plant response rating, Wheat [5, 15]: 10 | Plant response rating, Wheat [5, 16]: 0 | Plant response rating, Wheat [5, 17]: 0 | Plant response rating, Wheat [5, 18]: 30 | Wheat plant response rating [5, 19]: 65 | Wheat plant response rating [5, 20]: 0 | Plant response rating, Nutsedge, Yellow [6, 14]: 75 | Plant response rating, Nutsedge, Yellow [6, 15]: 85 | Plant response rating, Nutsedge, Yellow [6, 16]: 20 | Plant response rating, Nutsedge, Yellow [6, 17]: 70 | Plant response rating, Nutsedge, Yellow [6, 18]: 60 | Nutsedge, Yellow plant response rating [6, 19]: 90 | Nutsedge, Yellow plant response rating [6, 20]: 55 | Plant response rating, Soybean (soybean (Glycine max); [14]): 5 | Plant response rating, Soybean (soybean (Glycine max); [15]): 5 | Plant response rating, Soybean (soybean (Glycine max); [16]): 0 | Plant response rating, Soybean (soybean (Glycine max); [17]): 0 | Plant response rating, Soybean (soybean (Glycine max); [18]): 5 | Soybean plant response rating (soybean (Glycine max); [19]): 20 | Soybean plant response rating (soybean (Glycine max); [20]): 5 | Plant response rating, Pigweed [7, 14]: 98 | Plant response rating, Pigweed [7, 15]: 95 | Plant response rating, Pigweed [7, 16]: 95 | Plant response rating, Pigweed [7, 17]: 100 | Plant response rating, Pigweed [7, 18]: 100 | Pigweed plant response rating [7, 19]: 100 | Pigweed plant response rating [7, 20]: 75 | Corn plant response rating (corn (Zea mays); [21]): 0 | Plant response rating, Corn (corn (Zea mays); [14]): 10 | Plant response rating, Corn (corn (Zea mays); [15]): 10 | Plant response rating, Corn (corn (Zea mays); [16]): 5 | Plant response rating, Corn (corn (Zea mays); [17]): 20 | Plant response rating, Corn (corn (Zea mays); [18]): 10 | Corn plant response rating (corn (Zea mays); [19]): 30 | Corn plant response rating (corn (Zea mays); [20]): 5 | Plant response rating, Waterhemp [8, 14]: 95 | Plant response rating, Waterhemp [8, 15]: 98 | Plant response rating, Waterhemp [8, 16]: 85 | Plant response rating, Waterhemp [8, 17]: 100 | Plant response rating, Waterhemp [8, 18]: 98 | Waterhemp plant response rating [8, 19]: 100 | Waterhemp plant response rating [8, 20]: 75 | Plant response rating, Lambsquarters [9, 14]: 85 | Plant response rating, Lambsquarters [9, 15]: 98 | Plant response rating, Lambsquarters [9, 16]: 25 | Plant response rating, Lambsquarters [9, 17]: 80 | Plant response rating, Lambsquarters [9, 18]: 100 | Lambsquarters plant response rating [9, 19]: 95 | Lambsquarters plant response rating [9, 20]: 75 | Plant response rating, Ryegrass, Italian [10, 14]: 95 | Plant response rating, Ryegrass, Italian [10, 15]: 95 | Plant response rating, Ryegrass, Italian [10, 16]: 90 | Plant response rating, Ryegrass, Italian [10, 17]: 90 | Plant response rating, Ryegrass, Italian [10, 18]: 100 | Ryegrass, Italian plant response rating [10, 19]: 100 | Ryegrass, Italian plant response rating [10, 20]: 90 | Plant response rating, Morningglory [11, 14]: 100 | Plant response rating, Morningglory [11, 15]: 100 | Plant response rating, Morningglory [11, 16]: 80 | Plant response rating, Morningglory [11, 17]: 85 | Plant response rating, Morningglory [11, 18]: 90 | Morningglory plant response rating [11, 19]: 95 | Morningglory plant response rating [11, 20]: 95 | Plant response rating, Galium [12, 14]: 98 | Plant response rating, Galium [12, 15]: 98 | Plant response rating, Galium [12, 18]: 98 | Galium plant response rating [12, 19]: 98 | Galium plant response rating [12, 20]: 95 | Plant response rating, Crabgrass, Large [13, 14]: 30 | Plant response rating, Crabgrass, Large [13, 15]: 50 | Plant response rating, Crabgrass, Large [13, 16]: 30 | Plant response rating, Crabgrass, Large [13, 17]: 35 | Plant response rating, Crabgrass, Large [13, 18]: 60 | Crabgrass, Large plant response rating [13, 19]: 80 | Crabgrass, Large plant response rating [13, 20]: 20
